This note sets out measurements from ChEMBL document CHEMBL3797176, “Identification of selenocompounds with promising properties to reverse cancer multidrug resistance” (Bioorg Med Chem Lett, 2016).

For data set [1], the target named is T1, ATP-dependent translocase ABCB1 (Homo sapiens, UniProt P08183). Nature of the data set: Inhibition of human MDR1 transfected in multi-drug resistant mouse L5178Y cells assessed as fluorescence activity ratio at 2 uM incubated for 10 mins by rhodamine 123 accumulation assay. The format is cell-based.
The test system of data set [2] is L5178Y. As to the kind of experiment: Induction of apoptosis in mouse L5178Y cells assessed as early apoptosis at 2 uM after 1 hr by Annexin V-FITC/propidium iodide staining-based flow cytometry (reference value: 3.96%). The data set is classed as functional. A general note: In flow cytometry, cells or beads pass a laser one at a time.
For data set [3], the target named is T1, ATP-dependent translocase ABCB1. Nature of the data set: Inhibition of human MDR1 transfected in multi-drug resistant mouse L5178Y cells assessed as fluorescence activity ratio quotient at 2 uM incubated for 10 mins by rhodamine 123 accumulation assay relative to verapamil. The arrangement: scale not given: the % may be the effect or the level left. The format is cell-based.

Data set [4] deals with L5178Y. Nature of the data set: Cytotoxicity against multi-drug resistant mouse L5178Y cells assessed as growth inhibition after 72 hrs by MTT assay. The data set is classed as functional, cell-based.
Data set [5] deals with L5178Y. As to the kind of experiment: Induction of apoptosis in mouse L5178Y cells assessed as late apoptosis/necrosis at 2 uM after 1 hr by Annexin V-FITC/propidium iodide staining-based flow cytometry (reference value: 0.859%). The data set is classed as functional.
Data set [6] relates to L5178Y. As to the kind of experiment: Cytotoxicity against mouse L5178Y cells assessed as growth inhibition after 72 hrs by MTT assay. The format is functional, cell-based. On the technique in general: Tetrazolium assays rely on reduction of a dye to a coloured formazan, in cell work by metabolically active cells.
Data set [7] deals with T1, ATP-dependent translocase ABCB1. As to the kind of experiment: Inhibition of human MDR1 transfected in multi-drug resistant mouse L5178Y cells assessed as fluorescence activity ratio quotient at 20 uM incubated for 10 mins by rhodamine 123 accumulation assay relative to verapamil. Also noted: scale not given: the % may be the effect or the level left. The format is cell-based.

The subject of data set [8] is L5178Y. As to the kind of experiment: Induction of apoptosis in multi-drug resistant mouse L5178Y cells transfected with human MDR1 assessed as cell death at 2 uM after 1 hr by Annexin V-FITC/propidium iodide staining-based flow cytometry (reference value: 0.09%). The format is functional.
The target in data set [9] is T1, ATP-dependent translocase ABCB1. Nature of the data set: Inhibition of human MDR1 transfected in multi-drug resistant mouse L5178Y cells assessed as fluorescence activity ratio at 20 uM incubated for 10 mins by rhodamine 123 accumulation assay. The data set is classed as cell-based.
In data set [10] the test system is L5178Y. As to the kind of experiment: Induction of apoptosis in mouse L5178Y cells assessed as cell death at 2 uM after 1 hr by Annexin V-FITC/propidium iodide staining-based flow cytometry (reference value: 0.191%). The format is functional.
Data set [11] deals with L5178Y. Nature of the data set: Induction of apoptosis in multi-drug resistant mouse L5178Y cells transfected with human MDR1 assessed as early apoptosis at 2 uM after 1 hr by Annexin V-FITC/propidium iodide staining-based flow cytometry (reference value: 6.46%). The format is functional.
Data set [12] has as its system L5178Y. Nature of the data set: Induction of apoptosis in multi-drug resistant mouse L5178Y cells transfected with human MDR1 assessed as late apoptosis/necrosis at 2 uM after 1 hr by Annexin V-FITC/propidium iodide staining-based flow cytometry (reference value: 2.28%). The data set is classed as functional.
In data set [13] the target is T1, ATP-dependent translocase ABCB1. Nature of the data set: Inhibition of human MDR1 transfected in multi-drug resistant mouse L5178Y cells at 20 uM incubated for 10 mins by rhodamine 123 accumulation assay relative to verapamil. The data set is classed as cell-based.
Data set [14] shares this target. Nature of the data set: Inhibition of human MDR1 transfected in multi-drug resistant mouse L5178Y cells at 2 uM incubated for 10 mins by rhodamine 123 accumulation assay relative to verapamil. The format is cell-based.
Data set [15] concerns L5178Y. Nature of the data set: Ratio of induction of apoptosis in mouse L5178Y cells to multi-drug resistant mouse L5178Y cells transfected with human MDR1. The format is functional.
Data set [16] concerns L5178Y. Nature of the data set: Induction of apoptosis in multi-drug resistant mouse L5178Y cells transfected with human MDR1 assessed as late apoptosis/necrosis at 20 uM after 1 hr by Annexin V-FITC/propidium iodide staining-based flow cytometry (reference value: 2.28%). The data set is classed as functional.
The test system of data set [17] is L5178Y. As to the kind of experiment: Induction of apoptosis in mouse L5178Y cells assessed as late apoptosis/necrosis at 20 uM after 1 hr by Annexin V-FITC/propidium iodide staining-based flow cytometry (reference value: 0.859%). The format is functional.
Data set [18] deals with L5178Y. Nature of the data set: Induction of apoptosis in mouse L5178Y cells assessed as early apoptosis at 20 uM after 1 hr by Annexin V-FITC/propidium iodide staining-based flow cytometry (reference value: 3.96%). The format is functional.
Data set [19] relates to L5178Y. As to the kind of experiment: Induction of apoptosis in mouse L5178Y cells assessed as cell death at 20 uM after 1 hr by Annexin V-FITC/propidium iodide staining-based flow cytometry (reference value: 0.191%). The data set is classed as functional.
In data set [20] the test system is L5178Y. Nature of the data set: Induction of apoptosis in multi-drug resistant mouse L5178Y cells transfected with human MDR1 assessed as cell death at 20 uM after 1 hr by Annexin V-FITC/propidium iodide staining-based flow cytometry (reference value: 0.09%). The format is functional.
For data set [21], the system named is L5178Y. As to the kind of experiment: Induction of apoptosis in multi-drug resistant mouse L5178Y cells transfected with human MDR1 assessed as early apoptosis at 20 uM after 1 hr by Annexin V-FITC/propidium iodide staining-based flow cytometry (reference value: 6.46%). The data set is classed as functional.

T1 sequence (P08183 whole entry): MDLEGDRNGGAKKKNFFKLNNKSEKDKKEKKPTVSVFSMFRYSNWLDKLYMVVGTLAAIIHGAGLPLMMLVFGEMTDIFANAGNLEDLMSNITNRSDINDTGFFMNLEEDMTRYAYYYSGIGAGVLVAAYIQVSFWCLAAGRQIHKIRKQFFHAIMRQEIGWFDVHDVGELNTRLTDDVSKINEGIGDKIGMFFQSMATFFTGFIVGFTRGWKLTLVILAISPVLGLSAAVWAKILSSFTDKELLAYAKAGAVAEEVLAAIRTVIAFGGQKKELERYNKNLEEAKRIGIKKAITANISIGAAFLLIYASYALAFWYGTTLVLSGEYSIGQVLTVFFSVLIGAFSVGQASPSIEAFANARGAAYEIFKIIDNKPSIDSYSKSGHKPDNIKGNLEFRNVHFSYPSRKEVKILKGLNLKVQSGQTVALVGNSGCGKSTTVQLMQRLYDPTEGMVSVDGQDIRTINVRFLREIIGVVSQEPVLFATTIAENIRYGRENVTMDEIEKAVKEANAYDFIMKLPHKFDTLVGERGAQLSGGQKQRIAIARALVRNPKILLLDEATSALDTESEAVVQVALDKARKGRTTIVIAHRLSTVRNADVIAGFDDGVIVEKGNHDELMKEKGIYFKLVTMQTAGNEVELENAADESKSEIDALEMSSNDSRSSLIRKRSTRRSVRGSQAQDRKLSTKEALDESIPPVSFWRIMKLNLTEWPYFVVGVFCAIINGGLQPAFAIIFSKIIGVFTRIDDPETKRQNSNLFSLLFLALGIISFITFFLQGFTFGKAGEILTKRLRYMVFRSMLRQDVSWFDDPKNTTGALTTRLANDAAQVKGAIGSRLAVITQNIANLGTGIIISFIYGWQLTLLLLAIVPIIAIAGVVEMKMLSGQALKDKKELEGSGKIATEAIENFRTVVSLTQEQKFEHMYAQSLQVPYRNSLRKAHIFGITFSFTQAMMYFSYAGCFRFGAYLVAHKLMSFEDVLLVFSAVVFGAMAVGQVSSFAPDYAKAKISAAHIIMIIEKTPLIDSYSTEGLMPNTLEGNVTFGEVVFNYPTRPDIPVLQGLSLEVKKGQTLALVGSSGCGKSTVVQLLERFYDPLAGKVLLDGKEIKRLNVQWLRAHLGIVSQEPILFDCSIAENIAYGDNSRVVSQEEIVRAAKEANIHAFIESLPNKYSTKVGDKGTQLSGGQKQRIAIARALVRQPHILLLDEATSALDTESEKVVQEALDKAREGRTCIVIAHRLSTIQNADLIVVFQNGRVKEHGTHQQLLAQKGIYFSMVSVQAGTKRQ

Broadly, the IC50 is the concentration that gives 50% inhibition. Take `NC(=O)C[Se]C(=O)c1ccccc1`: the results for the Ratio in data set [1] and in data set [9] were 1.02 and 1.05, respectively. Moreover, the Activity worked out at 2.46% in data set [2]; 3.04% in data set [3]; 2.24% in [5]; 3.72% in data set [7]; 0.33% in data set [8]; 0.081% in data set [10]. For the same compound, the Activity in data set [11] is 3.01%; in [12] it was 2.91%. For the same compound, the 50% inhibitory concentration (IC50) is 36.4 µM in data set [4] and > 100 µM in [6].
Turning to `O=C1[Se]C(=O)c2ccccc21`, the Ratio was 43.14 in data set [1] and 97.61 in data set [9]. Also, the Activity in data set [2] stood at 31.5%; in [3], 157.4%; in data set [5] it was 53.9%; in [7], 356.2%; in [8], 0.47%; in data set [10] it was 0.767%. Also, the Activity in [11] is given as 32.2%; in data set [12] it was 45%. Besides, the IC50 in data set [4] was found to be 4.65 µM; in data set [6], 3.97 µM. Also, the “fold change (FC)” value in data set [13] is given as 1.7; in data set [14], 1.6.
Consider `COC(=O)C[Se]C(=O)c1ccc(Cl)cc1`, for which the Ratio amounted to 6.45 in data set [1] and 8.53 in data set [9]. The Activity is reported as 5.09% in data set [2]; 30.28% in data set [3]; 2.52% in [5]; 23.54% in [7]; 0.03% in data set [8]; 0.497% in data set [10]. Further, the Activity in [11] worked out at 2.69%; in [12] it was 1.47%. The IC50 was 87.8 µM in [4] and > 100 µM in data set [6].
On to `O=C(C[Se]C(=O)c1ccccc1)Oc1ccccc1`, for which the Ratio worked out at 0.65 in data set [1] and 5.68 in [9]. The Activity in data set [2] was determined as 3%; in data set [3], 3.05%; in data set [5], 2.11%; in [7], 2.37%; in data set [8] it was 0.16%; in data set [10], 0.24%. Moreover, the Activity in data set [11] stood at 3.9%; in [12] it was 2.26%. For the same compound, the IC50 in data set [4] and in data set [6] was > 100 µM each time.
Take `CC(=O)C[Se]C(=O)c1ccc(Cl)cc1`: the Ratio is reported as 94.2 in data set [1] and 84.64 in data set [9]. The Activity in data set [2] was 30.8%; in data set [3], 343.79%; in [5], 52.7%; in data set [7], 308.91%; in [8], 7.66%; in data set [10] it was 0.874%. Besides, the Activity is listed as 3.86% in data set [11] and 85.8% in data set [12]. In addition, the IC50 in data set [4] turned out to be 1.03 µM; in data set [6], 0.78 µM. Besides, the “fold change (FC)” value in data set [13] stood at 1.7; in data set [14], 1.6.
Consider `CC(C)(C)C(=O)C[Se]C(=O)c1ccc(Cl)cc1`, for which the Ratio in data set [1] is on record as 9.28; in data set [15], 2; in [9], 48.67. For the same compound, the Activity in [2] was found to be 36.1%; in data set [3], 33.87%; in data set [5], 56.1%; in [7] it was 177.63%; in data set [8], 1.21%; in data set [10], 0.255%. Moreover, the Activity was 15.9% in data set [11] and 21.9% in data set [12]. Moreover, the IC50 in data set [4] came to 0.43 µM; in [6], 0.94 µM. Further, in data set [13], the “fold change (FC)” value was 1.7.
On to `COc1cc(OC)cc(C(=O)[Se]CC(=O)C(C)(C)C)c1`, for which the Ratio amounted to 12.56 in [1], 2 in data set [15] and 46.35 in data set [9]. The Activity in data set [2] was 15.7%; in data set [3], 45.84%; in [5], 66.6%; in data set [7] it was 169.16%; in [8], 0.51%; in data set [10], 0.167%. Also, the Activity in [11] turned out to be 16.6%; in data set [12], 30.5%. Moreover, the concentration for half-maximal inhibition (IC50) in [4] is 0.97 µM; in data set [6], 1.31 µM. Moreover, the “fold change (FC)” value in data set [13] was determined as 1.7.
In the case of `C[Se]C(=O)c1ccc(C(=O)[Se]C)cc1`, the Ratio was 3.97 in data set [1] and 3.09 in data set [9]. Besides, the Activity stood at 3.61% in data set [2]; 18.64% in data set [3]; 2.01% in data set [5]; 14.49% in data set [7]; 0.37% in [8]; 0.11% in data set [10]. Besides, the Activity in data set [11] was 3.01%; in [12], 3.25%. Also, the IC50 in data set [4] and in data set [6] was > 100 µM throughout.
For the compound `C[Se]C(=O)c1cccc(C(=O)[Se]C)c1`, the Ratio in data set [1] amounted to 0.93; in [9], 0.98. Moreover, the Activity in data set [2] came to 4.47%; in data set [3], 2.78%; in data set [5] it was 3.79%; in data set [7] it was 3.39%; in data set [8] it was 0.45%; in data set [10], 0.076%. The Activity is listed as 4.35% in data set [11] and 2.8% in data set [12]. Besides, the IC50 in [4] and in [6] was > 100 µM each time.
Consider `C[Se]C(=O)c1cccc(C(=O)[Se]C)n1`, for which the Ratio in data set [1] is given as 1.13; in [9] it was 1.49. The Activity in data set [2] is 5.97%; in data set [3], 3.98%; in [5], 7.18%; in [7], 5.44%; in [8] it was 0.24%; in data set [10], 0.202%. For the same compound, the values for the Activity in data set [11] and in [12] were 5.38% and 3.28%, respectively. Further, the IC50 in [4] turned out to be 16.9 µM; in data set [6], 19.5 µM.
As for `C[Se]C(=O)c1ccc(C(=O)[Se]C)s1`, the Ratio in data set [1] is recorded as 0.99; in data set [9] it was 1.07. The Activity came out at 6.64% in [2]; 3.61% in data set [3]; 6.93% in data set [5]; 3.19% in data set [7]; 0.3% in data set [8]; 0.352% in data set [10]. Also, the Activity was determined as 5.07% in data set [11] and 2.34% in [12]. Moreover, the half-inhibitory concentration (IC50) in data set [4] and in [6] was > 100 µM in each case.
For the compound `c1ccc2c(c1)Nc1c(ccc3ccccc13)S2`, the Activity in data set [16] is 45.7%; in data set [17] it was 5.58%; in data set [18], 51.2%; in data set [19], 0.279%; in data set [20], 0.12%; in data set [21] it was 47.9%.
As to `CSc1ccc2c(c1)N(CCC1CCCCN1C)c1ccccc1S2` (stereo not drawn) [THIORIDAZINE], the IC50 is 7.43 µM in data set [4] and 12.7 µM in [6].
